Source: patent publication US9745335B2 (Blirt S.A., priority 2012, dated 2017)

Key:
Human erythrocytes = assay: hemotoxicity determination (hemolytic activity); assay type: cell-based
Summary of the method: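 Human erythrocytes (2×10^7/ml in saline) were incubated with serially diluted compound for 30 min at 37 °C and then centrifuged. Released haemoglobin was read at A540 against a 0.1% Triton X-100 full-lysis control. EH50 is the interpolated concentration giving 50% of the control A540.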

[1] = test system: Candida albicans strain 5674 (CaCdr1p, CaCdr2p); assay: antifungal activity against MDR fungal strains and parents; assay type: cell-based; conditions: C. albicans 5674 (CaCdr1p, CaCdr2p)
Experimental: (§1) For the determination of antifungal activity in vitro we used method of serial dilution in buffered medium RPMI 1640, pH 7.0, in a 96-wells microplates, according to the standard procedure (National Committee for Clinical Laboratory Standards. Reference method for broth dilution antifungal susceptibility testing of yeast, approved standard, 2nd ed. M27-A2 vol. 22 Wayne, Pa., 2002). The optical density of cells suspension was measured using a microplates reader (Victor^3, Perkin-Elmer) at the wavelength λ=531 nm (A531). On the basis of obtained results the diagrams of relation between A531 values and concentration of examined compound were made.

[2] = test system: Candida albicans clinical strain B4 (CaMdr1p); assay: as above; assay type: cell-based; conditions: C. albicans B4 (CaMdr1p), fluconazole-resistant
Experimental: as §1

[3] = test system: Candida albicans clinical strain B3; assay: as above; assay type: cell-based; conditions: C. albicans B3, fluconazole sensitive, parent strain for B4
Experimental: as §1

[4] = test system: Candida albicans strain STY31; assay: as above; assay type: cell-based; conditions: C. albicans STY31, 5674 derivative, deletion of CDR1 and CDR2
Experimental: as §1

[5] = test system: Candida albicans clinical strain F2; assay: as above; assay type: cell-based; conditions: C. albicans F2, fluconazole sensitive, parent strain for F5
Experimental: as §1

[6] = test system: Candida albicans clinical strain Gu5 (CaCdr1p, CaCdr2p); assay: as above; assay type: cell-based; conditions: C. albicans Gu5 (CaCdr1p, CaCdr2p), fluconazole-resistant
Experimental: as §1

[7] = test system: Candida albicans clinical strain F5 (CaMdr1p); assay: as above; assay type: cell-based; conditions: C. albicans F5 (CaMdr1p), fluconazole-resistant
Experimental: as §1

[8] = test system: Candida albicans clinical strain Gu4; assay: as above; assay type: cell-based; conditions: C. albicans Gu4, fluconazole sensitive, parent strain for Gu5
Experimental: as §1

[9] = test system: Candida albicans strain STY7 (CaCdr1p); assay: as above; assay type: cell-based; conditions: C. albicans STY7 (CaCdr1p), 5674 derivative, deletion of CDR2
Experimental: as §1

[10] = test system: Saccharomyces cerevisiae ATCC 9763; assay: antifungal activity in vitro, serial dilution in RPMI 1640; assay type: cell-based; conditions: RPMI 1640, pH 7.0; for Antifungal activity IC50: Saccharomyces cerevisiae ATCC 9763 (first head over MIC and IC50); for Antifungal activity MIC: Saccharomyces cerevisiae ATCC 9763
Summary of the method: (§2)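 Susceptibility was tested by serial broth dilution in buffered RPMI 1640, pH 7.0, following the NCCLS M27-A2 reference procedure for yeasts. Growth was read as optical density at 531 nm, and A531 was plotted against compound concentration.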

Candida krusei DSM 6128 = assay: as above; assay type: cell-based
Summary of the method: as §2

[11] = test system: Candida glabrata DSM 11226; assay: as above; assay type: cell-based
Summary of the method: as §2

[12] = test system: Candida albicans ATCC 10231; assay: as above; assay type: cell-based
Summary of the method: as §2

[13] = test system: Candida tropicalis KKP 334; assay: as above; assay type: cell-based
Summary of the method: as §2

[14] = test system: Candida lusitaniae DSM 70102; assay: as above; assay type: cell-based
Summary of the method: as §2

CCRF-CEM cells = assay: cytotoxic activity against mammalian cells in tissue culture (MTT); assay type: cell-based, human
HepG2 cells = assay: as above; assay type: cell-based, human
LLC-PK1 cells = assay: as above; assay type: cell-based, pig
[15] = test system: Candida lipolytica KKP 322; assay: antifungal activity in vitro, broader spectrum; assay type: cell-based
Experimental: as §1
(§3) Obtained results are presented below in tables 2A and 2B.

Candida arborea KKP 319 = assay: antifungal activity in vitro, broader spectrum; assay type: cell-based
Experimental: as §1, §3

[16] = test system: Candida dubliniensis CBS 7987; assay: antifungal activity in vitro, broader spectrum; assay type: cell-based
Experimental: as §1, §3

[17] = test system: Aspergillus niger LOCK E201; assay: antifungal activity in vitro, broader spectrum; assay type: cell-based
Experimental: as §1, §3

[18] = test system: Trichoderma viride LOCK E159; assay: antifungal activity in vitro, broader spectrum; assay type: cell-based
Experimental: as §1, §3

[19] = test system: Candida stellatoidea CBS 1905; assay: antifungal activity in vitro, broader spectrum; assay type: cell-based
Experimental: as §1, §3

[20] = test system: Candida quilliermondii DSM 11947; assay: antifungal activity in vitro, broader spectrum; assay type: cell-based
Experimental: as §1, §3

[21] = test system: Candida parapsilosis DSM 5784; assay: antifungal activity in vitro, broader spectrum; assay type: cell-based
Experimental: as §1, §3

Candida albicans SC 5314 = assay: antifungal activity in vitro, broader spectrum; assay type: cell-based
Experimental: as §1, §3

[22] = test system: Candida pseudotropicalis KKP 324; assay: antifungal activity in vitro, broader spectrum; assay type: cell-based
Experimental: as §1, §3

Row | Compound | Hemotoxi EH50 (Human erythrocytes) [µg/mL] | Antifungal activity MIC [1] [mg/L] | Antifungal activity MIC [2] [mg/L] | Antifungal activity MIC [3] [mg/L] | Antifungal activity MIC [4] [mg/L] | Antifungal activity MIC [5] [mg/L] | Antifungal activity MIC [6] [mg/L] | Antifungal activity MIC [7] [mg/L] | Antifungal activity MIC [8] [mg/L] | Antifungal activity MIC [9] [mg/L] | Antifungal activity IC50 [10] [mg/L] | Antifungal activity MIC [10] [mg/L] | Antifungal activity MIC (Candida krusei DSM 6128) [mg/L] | Antifungal activity MIC [11] [mg/L] | Antifungal activity MIC [12] [mg/L] | Antifungal activity MIC [13] [mg/L] | Antifungal activity MIC [14] [mg/L] | IC50 (cytotoxic activity) (CCRF-CEM cells) [mg/L] | IC50 (cytotoxic activity) (HepG2 cells) [mg/L] | IC50 (cytotoxic activity) (LLC-PK1 cells) [mg/L] | also measured
1 | C[C@@H]1[C@H](O)[C@@H](C)/C=C/C=C/C=C/C=C/C=C/C=C/C=C/[C@H](O[C@@H]2O[C@H](C)[C@@H](O)[C@H](NC(=O)[C@@H](N)Cc3ccccc3)[C@@H]2O)C[C@@H]2O[C@](O)(C[C@@H](O)C[C@@H](O)[C@H](O)CC[C@@H](O)C[C@@H](O)CC(=O)O[C@H]1C)C[C@H](O)[C@H]2C(=O)O [Compound A30, N-L-phenylalanylamphotericin B] | >100 | 0.5 | 2 | 0.5 | 1 | 2 | 2 | 4 | 1 | 1 | 0.90 | 2 | 2 | 2 | 2 | 2 | 2 | >100 | >100 | >100 | Antifungal activity MIC [15]: 2 mg/L; Antifungal activity MIC (Candida arborea KKP 319): 4 mg/L; Antifungal activity MIC [16]: 1 mg/L; Antifungal activity MIC [17]: 2 mg/L; Antifungal activity MIC [18]: 4 mg/L; Antifungal activity MIC [19]: 1 mg/L; Antifungal activity MIC [20]: 1 mg/L; Antifungal activity MIC [21]: 2 mg/L; Antifungal activity MIC (Candida albicans SC 5314): 1 mg/L; Antifungal activity MIC [22]: 1 mg/L
2 | N-(4-N,N-diethylaminobenzyl)amphotericin B [Compound A19] | >100 | 1 | 2 | 1 | 1 | 2 | 1 | 2 | 1 | 1 | 0.53 | 1 | 2 | 2 | 1 | 1 | 1 | >100 | >100 | >100 | Antifungal activity MIC [15]: 2 mg/L; Antifungal activity MIC (Candida arborea KKP 319): 2 mg/L; Antifungal activity MIC [16]: 0.5 mg/L; Antifungal activity MIC [17]: 1 mg/L; Antifungal activity MIC [18]: 4 mg/L; Antifungal activity MIC [19]: 1 mg/L; Antifungal activity MIC [20]: 2 mg/L; Antifungal activity MIC [21]: 2 mg/L; Antifungal activity MIC (Candida albicans SC 5314): 0.5 mg/L; Antifungal activity MIC [22]: 0.5 mg/L
3 | C[C@@H]1[C@H](O)[C@@H](C)/C=C/C=C/C=C/C=C/C=C/C=C/C=C/[C@H](O[C@@H]2O[C@H](C)[C@@H](O)[C@H](NC(=O)[C@@H](N)Cc3ccc([N+](=O)[O-])cc3)[C@@H]2O)C[C@@H]2O[C@](O)(C[C@@H](O)C[C@@H](O)[C@H](O)CC[C@@H](O)C[C@@H](O)CC(=O)O[C@H]1C)C[C@H](O)[C@H]2C(=O)O [Compound A33, N-L-p-nitrophenylalanylamphotericin B] | >100 | 2 | 1 | 0.5 | 0.5 | 4 | 1 | 8 | 1 | 1 | 1.39 | 2 | 4 | 4 | 2 | 4 | 2 | >100 | >100 | >100 | Antifungal activity MIC [15]: 1 mg/L; Antifungal activity MIC (Candida arborea KKP 319): 2 mg/L; Antifungal activity MIC [16]: 1 mg/L; Antifungal activity MIC [17]: 1 mg/L; Antifungal activity MIC [18]: 4 mg/L; Antifungal activity MIC [19]: 1 mg/L; Antifungal activity MIC [20]: 1 mg/L; Antifungal activity MIC [21]: 1 mg/L; Antifungal activity MIC (Candida albicans SC 5314): 1 mg/L; Antifungal activity MIC [22]: 1 mg/L
